Read-outs that look alike come from different tables or passages of the source.

Results on nine molecules are retold here after US20230094176A1, “COMPOUNDS AND METHODS FOR IMPROVING IMPAIRED ENDOGENOUS FIBRINOLYSIS USING HISTONE DEACETYLASE INHIBITORS” (Cereno Scientific AB, priority 2011, published 2023).

In data set [1] the test system is TNF-a suppressed t-PA mRNA in HUVECs. Description: TNF-alpha suppression of t-PA mRNA in HUVEC: anti-inflammatory substances versus Givinostat. The format is cell-based, human. The following applies: HUVEC, TNF-a 1 h then substance; ASA 1 mM, IBU 1 mM. The method, then:
HUVECs were treated with TNF-alpha (TNF-a) for 1 h and then optimal concentrations of the anti.inflammatory substances acetylsalicylic acid (ASA, 1 mM) and ibuprofen (IBU, 1 mM) was added. Givinostat was also added to the cells for comparison. Cells were harvested and t-PA mRNA levels analysed according to example 1.

Data set [2] concerns t-PA mRNA expression in human umbilical vein endothelial cells (HUVECs). Briefly: In vitro dose response: t-PA mRNA (and protein) expression in HUVEC after 24 h. It is filed as cell-based. The protocol: Human umbilical vein endothelial cells (HUVECs) were prepared by collagenase treatment of fresh umbilical cords (Jaffe, E. A., et al. J Clin Invest 52, 2745-2756 (1973)) obtained from the maternity ward of the Sahlgrenska University hospital, Gotheburg, Sweden. Cells were cultured in EGM-2 medium (Lonza, Basel, Switzerland) and all experiments were performed in passage 1 of subcultivation. Confluent HUVECs were exposed to 10 nM-10 μM of Vorinostat (Selleck Chemicals, Houston, Tex., USA) in complete medium for 24 h. After 24 h, cells and conditioned media were harvested.
Total RNA was prepared using RNeasy Mini RNA kit (Qiagen, Hilden, Germany) and genomic DNA was removed using RNase-free DNase I set (Qiagen). Levels of t-PA mRNA were analyzed with real-time RT-PCR, performed on an Applied Biosystems 7500 Fast Real-Time PCR System using cDNA and Taqman reagents obtained from Applied Biosystems (Foster City, Calif., USA). Hypoxanthine phosphoribosyl transferase (HPRT, Assay number Hs99999909_m1, Applied Biosystems) was used as endogenous internal standard.
Endothelial cells in culture are known to constitutively secrete the majority of synthesized t-PA making conditioned media a suitable source for quantification of t-PA protein. Conditioned medium from cell cultures was collected, centrifuged (10 000×g, 10 min, 4° C.) to remove cell debris, transferred to fresh tubes and stored at −70° C. Concentrations of t-PA antigen in conditioned media were determined using the commercially available TriniLize t-PA antigen ELISA (Trinity Biotech, Bray, Ireland) according to manufacturer's protocol.

Data set [3] has as its system t-PA mRNA in HUVECs. Briefly: C100: dose giving a 100% increase of t-PA mRNA in HUVEC (24 h). The format is cell-based, human. The protocol: HUVECs are treated with different concentrations of first generation hydroxamates (TSA), second generation hydroxamates (Givinostat, Vorinostat, Belinostat, Panobinostat, SB939, PCI24781), benzamides (Mocetinostat, Entinostat) or short chain fatty acids (SCFA, Butyrate, Phenylbutyrate) for 24 h and t-PA mRNA was measured. The doses giving a 100% increase of t-PA mRNA (C100) was determined and compared to the maximum plasma concentration (Cmax) achieved when the maximum tolerated dose (MTD) of each substance is administered to humans, by dividing the C100 with the Cmax. […] In the table below the values for MTD and Cmax are from the following references (mentioned in the same order as in the table): Steele, N. L. et al Cancer Chemother Pharmacol 67(6):1273-9 (2011), Kelly, K. K. et al J Clin Oncol 23:3923-3931 (2005), Furlan, A. et al Mol Med 17(5-6) 353-362 (2011), Fukutomi, A. et al Invest New Drugs 2011 Apr. 12, Yong, W. P. et al Ann Oncol 22(11) 2516-22 (2011), Garcia-Manero, G. et al. Blood 112: 981-989 (2008), Ryan, Q. C. et al J Clin Oncol 23(17): 3912-3922 (2005), Edelman, M. J. et al Cancer Chemother Pharmacol 51: 439-444, http://www.drugs.com/pro/buphenyl.html *Butyrate was administered in the prodrug form tributyrin.

For data set [4] the following is noted: cited from earlier work; for Cmax / Cmax (ng/ml): maximum plasma concentration when the MTD is administered to humans.
The test system of data set [5] is t-PA production in endothelial cells. The following applies: Arts et al 1995; cited from earlier work.

`CC(=O)Oc1ccccc1C(=O)O` [ASA, acetylsalicylic acid]: in data set [1], the “effect on TNF-a mediated suppression of t-PA expression” value (“effect on TNF-a mediated suppression” below) was “not counteracted”.
For the molecule `CCCCc1nc2cc(/C=C/C(=O)NO)ccc2n1CCN(CC)CC` [SB939, (2E)-3-{2-butyl-1-[2-(diethylamino)ethyl]-1H-benzimidazol-5-yl}-N-hydroxyacrylamide], in data set [2], the “concentration at which a significant increase of t-PA mRNA levels was seen” value is 30 nM, the “concentration of maximal effect on t-PA expression” value is “around 1 μM” and the “increase of t-PA expression at maximal effect” value is given as “approximately 10 times”. For the same molecule, in data set [3], the “C100 tPA” value was determined as 0.05 µM. Further, the MTD in data set [4] (humans, literature) is 80 mg. Besides, in data set [4], the Cmax (usually the peak of the concentration-time curve) is 1.1 µM and the “Cmax (ng/ml)” value is ~400 ng/mL. The MTD in data set [4] (once daily, oncology treatment or trials) is 60 mg once daily.
In the case of `Nc1ccccc1NC(=O)c1ccc(CNC(=O)OCc2cccnc2)cc1` [Entinostat], the “C100 tPA” value in data set [3] was 0.3 µM. Moreover, in data set [4], the Cmax is 0.12 µM and the “Cmax (ng/ml)” value is 45 ng/mL.
As for `CCCC(=O)O` [Butyrate], the “C100 tPA (μM)” value in data set [3] worked out at 100 µM. The MTD in data set [4] (humans, literature, butyrate administered in the prodrug form tributyrin) is on record as 200 mg/kg t.i.d. Moreover, the Cmax in data set [4] (butyrate as prodrug tributyrin) is 100 µM.
`CC(=O)Oc1ccccc1C(=O)O` [aspirin]: the “effect on TNF-a mediated suppression” value in data set [1] is given as “unable to reverse”.
Take `CC(/C=C/C(=O)NO)=C\[C@@H](C)C(=O)c1ccc(N(C)C)cc1` [Trichostatin A, trichostatin A]: in data set [5], the “t-PA production in endothelial cells” value was “increased”.
Turning to Phenylbutyrate, the “C100 tPA (μM)” value in data set [3] stood at 1300 µM. In data set [4] (humans, literature), the MTD is 5000 mg. Also, the Cmax in data set [4] (butyrate as prodrug tributyrin) is 1100 µM. The “Cmax (ng/ml)” value in data set [4] is 218 000 ng/ml.
As to `CC(C)Cc1ccc(C(C)C(=O)O)cc1` (centres unmarked) [IBU, ibuprofen], the “effect on TNF-a mediated suppression” value in data set [1] was “not counteracted”.
Regarding `CC(C)Cc1ccc(C(C)C(=O)O)cc1` (centres unmarked) [ibuprofen], the “effect on TNF-a mediated suppression” value in data set [1] was “unable to reverse”.
